Data from PubChem BioAssay AID1645864 (Buhrlage Lab, Dana-Farber Cancer Institute and Novartis …, 2021).
Calls of active or inactive are those of the source.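 Rule for the calls: active = maximal inhibition of USP17 at or above 30% in the confirmation dose-response, a value not among the printed readouts; inactive = the rest.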

Target: Ubiquitin carboxyl-terminal hydrolase 17-like protein 5 (Homo sapiens) (UniProt A8MUK1)
Experiment: ubiquitin-specific protease 17 DUB inhibitors, concentration-effect assay, cell-free, verification of initial screening actives (AID 1645864)
Conditions: purified USP17, ubiquitin-rhodamine cleavage fluorescence, 3 h

Sequence of Ubiquitin carboxyl-terminal hydrolase 17-like protein 5 (Homo sapiens) (A8MUK1 whole entry, looked up): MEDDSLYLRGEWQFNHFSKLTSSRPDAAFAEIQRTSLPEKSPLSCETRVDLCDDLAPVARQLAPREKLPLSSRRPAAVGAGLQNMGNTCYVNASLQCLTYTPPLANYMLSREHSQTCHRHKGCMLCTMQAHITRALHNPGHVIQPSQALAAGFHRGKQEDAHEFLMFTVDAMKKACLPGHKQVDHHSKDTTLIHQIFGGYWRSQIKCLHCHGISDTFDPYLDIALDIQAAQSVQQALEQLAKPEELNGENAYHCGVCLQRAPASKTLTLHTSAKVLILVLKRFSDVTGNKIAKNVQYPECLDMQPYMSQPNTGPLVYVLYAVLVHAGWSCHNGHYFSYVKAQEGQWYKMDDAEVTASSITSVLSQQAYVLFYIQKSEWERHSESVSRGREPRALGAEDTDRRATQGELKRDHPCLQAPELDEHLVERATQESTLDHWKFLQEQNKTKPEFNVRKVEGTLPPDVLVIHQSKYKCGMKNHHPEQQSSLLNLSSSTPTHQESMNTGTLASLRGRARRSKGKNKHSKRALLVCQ

| SMILES | IC50 |
| --- | --- |
| O=S1(=O)NC(=NCCc2ccc(Cl)cc2Cl)c2ccccc21 | 36.4 µM |
| CN(C)c1cccc(C(=O)Nc2cc(-c3cccnc3)no2)c1 | 26.9 µM |
| NC(=O)Cn1c(=O)n(Cc2ccc(C(=O)NC3CCCC3)cc2)c(=O)c2ccccc21 | > 50 µM (inactive) |
| O=C(CNC(=O)c1cc2ccccc2o1)Nc1ccc2c(c1)OCCO2 | 46 µM |
| CCOCCCn1c(SCC(=O)Nc2ccccc2C(F)(F)F)nc2ccccc2c1=O | 20.9 µM |
| O=C(Cn1cncc(C(=O)NC2CCCC2)c1=O)Nc1cccc(F)c1 | 19 µM |
| Cc1ccc(C)c(Cn2nnc3c(=O)[nH]c(C4CCN(S(=O)(=O)c5ccc(S(=O)(=O)NC6CC6)cc5)CC4)nc32)c1 | 24.4 µM |
| CC1CCN(S(=O)(=O)c2ccc3[nH]cc(C(=O)NCc4ccco4)c(=O)c3c2)CC1 | > 50 µM (inactive) |
| CC(=O)N1Cc2ccccc2CC2(CCCN(CC3CCOCC3)C2)C1 (centres undefined) | > 50 µM (inactive) |
| CN(C(=O)c1cccc2cccnc12)c1nc2c(s1)CCc1occc1-2 | 24.9 µM |
| c1ccc2c(Cc3nc(-c4ccncc4)no3)cccc2c1 | > 50 µM (inactive) |
| COc1ccc(C2SCC(=O)Nc3c2c(=O)[nH]n3C2CCCCCC2)cc1 (centres undefined) | 33.5 µM |
| COc1cccc(NC(=O)c2ccc3noc(-c4ccc(Cl)cc4)c3c2)c1 | 37.4 µM |
| O=C(/C=C/c1cnc2ccccc2c1)NCc1ccccc1 | 43.4 µM |
| CCc1nc(N2CCCC2=O)sc1C(=O)Nc1cccc(C(C)=O)c1 | > 50 µM (inactive) |
| CC(C)Cc1nc2sc3c(NCCN4CCOCC4)ncnc3c2c2c1CCC2 | > 50 µM (inactive) |
| CCOC(=O)c1cc2c(ccn2C)n1Cc1cccc2ccccc12 | > 50 µM (inactive) |
| COc1ccc(C(=O)C2CC(=O)Nc3c2c(C)nn3-c2ccc(Br)cc2)cc1 (centres undefined) | 10 µM |
| Cc1ccc(NC(=O)c2ccc(Nc3nnc(C)c4ccccc34)cc2)cc1 | 38.1 µM |
| Fc1cc(F)c2[nH]cc(-c3nnnn3-c3ccc4ccccc4c3)c2c1 | 6.56 µM |
| Cc1ccc(Cn2nnc(-c3ccccc3Cl)n2)cc1 | > 50 µM (inactive) |
| Cc1cc(N2CCN(c3ncccn3)CC2)nc2ccc(NC(=O)/C=C/c3ccccc3Cl)cc12 | 12.6 µM |
| COc1ccc(-c2nc3n(n2)C(CC(=O)Nc2cccc4ccccc24)C(=O)N3)cc1 (centres undefined) | 8.65 µM |
| O=C(Cn1cnc2c(cnn2-c2ccc(Cl)cc2)c1=O)NCc1ccccc1Cl | 3.43 µM |
| O=C(COC(=O)c1cc(Cl)ccc1O)Nc1ccc2c(c1)OCCO2 | 29.2 µM |

| SMILES | IC50 |
| --- | --- |
| Cc1ccc(Cc2nc(-c3ccc(=O)[nH]c3)no2)cc1 | > 50 µM (inactive) |
| COc1ccc(OC)c(NC(=O)CSc2nc(C)nc3c2oc2ccccc23)c1 | 2.54 µM |
| O=C(NCc1cccnc1)c1cnn2c(C(F)(F)F)cc(-c3ccc(F)cc3)nc12 | 27.7 µM |
| COc1ccc(NS(=O)(=O)c2ccc(NC(=O)Nc3ccc(Cl)cc3)cc2)cc1 | 23.9 µM |
| Cc1ccc(NC(=O)Cc2nnc3cc(-c4nc(C)no4)ccn23)cc1 | 18.7 µM |
| O=C(NCC(c1cccnc1)N1CCc2ccccc2C1)C(=O)Nc1ccc2c(c1)OCO2 (centres undefined) | 30.5 µM |
| COc1ccc(CNC(=O)CN2C(=O)CC(c3ccccc3)=Nc3ccccc32)cc1 | 4.42 µM |
| CCCNC(=O)c1ccn(-c2ccc3ccc(-c4cnn(C)c4)cn23)n1 | > 50 µM (inactive) |
| N#Cc1ccccc1OCc1csc(-c2ccccc2)n1 | > 50 µM (inactive) |
| Nc1nc(OCc2ccccc2)c2[nH]c(/C=C/c3cccs3)nc2n1 | 32.5 µM |
| c1ccc(CN2CCN(c3nc4ccccc4n4nnnc34)CC2)cc1 | > 50 µM (inactive) |
| CCCOc1ccc(C(=O)Nc2ccc(S(=O)(=O)Nc3cc(C)nc(C)n3)cc2)cc1 | > 50 µM (inactive) |
| Cc1ccc(C(=O)Nc2ccc(S(=O)(=O)N3CCCC3)cc2)cc1Br | > 50 µM (inactive) |
| COc1cccc(NC(=O)CSc2nnc(-c3cc4cccc(OC)c4o3)n2C)c1 | 11.9 µM |
| CCOc1ccccc1NC(=O)Cn1c(=O)n(CCCC(=O)NCc2ccc(C)cc2)c(=O)c2sccc21 | 2.71 µM |
| CC1CCN(c2nnc(-c3nc(C4CC4)no3)c3ccccc23)CC1 | > 50 µM (inactive) |
| Cc1ccc2nc(-c3cccc(-c4nc5ccc(C)cc5[nH]4)n3)[nH]c2c1 | 7.06 µM |
| COc1ccc(Cn2c(SCc3ccc(C(=O)NCCc4ccccc4)cc3)nc3ccncc32)cc1 | > 50 µM (inactive) |
| CC1=C(c2ccc(F)cc2)S(=O)(=O)NC1=NCC(=O)Nc1ccc(F)cc1 | 40.6 µM |
| COc1ccc(C(=O)Nc2cc3c4c(c2)C(C)C(=O)N4CCC3)cc1 (centres undefined) | > 50 µM (inactive) |
| CCOc1ccccc1-c1nc(-c2nnn(Cc3ccccc3)c2C)no1 | > 50 µM (inactive) |
| CCC(CC)n1[nH]c(=O)c2c1NC(=O)CSC2c1ccc2c(c1)OCO2 (centres undefined) | 18.5 µM |
| Cc1ccc(NC(=O)c2cnc(N3CCOCC3)nc2)cc1F | 28.6 µM |
| c1coc(CNc2nc3ccccc3n3nnnc23)c1 | > 50 µM (inactive) |
| O=C(O)c1ccccc1C(=O)Nc1ccc(SC(C(=O)Nc2ccccc2)c2ccccc2)cc1 (centres undefined) | > 50 µM (inactive) |

| SMILES | IC50 |
| --- | --- |
| CCOc1ccccc1NC(=O)COc1cc(OC)ccc1C(=O)c1ccccc1 | > 50 µM (inactive) |
| O=C(COc1ccc(Cl)cc1Cl)Nc1ccc2[nH]c(=O)[nH]c2c1 | 7.41 µM |
| COc1ccccc1CNC(=O)c1ccccc1OCc1ccccc1Cl | > 50 µM (inactive) |
| CCOC(=O)c1sc2nc(CC(=O)OC)nc(NCc3ccco3)c2c1C | > 50 µM (inactive) |
| NS(=O)(=O)c1ccc(CNS(=O)(=O)c2ccc(-c3ccccn3)s2)cc1 | 23.2 µM |
| NS(=O)(=O)c1ccc(Cl)c(C(=O)OCc2csc(Nc3ccccc3)n2)c1 | > 50 µM (inactive) |
| Fc1cnc(N2CC[C@H]3CO[C@H](CNc4ncccn4)[C@H]3C2)nc1 | > 50 µM (inactive) |
| CSc1ccc(CNC(=O)CC2CCN(S(=O)(=O)c3ccc(C)cc3)CC2)cc1 | 23.7 µM |
| O=C(Nc1ccc2c(c1)OCO2)C1CCN(Cc2nc3ccccc3s2)CC1 | > 50 µM (inactive) |
| FC(F)(F)c1ccccc1CCN1CCc2nc3ncc(Cl)cc3cc2C1 | > 50 µM (inactive) |
| COc1ccc(OC)c(NC(=O)CS(=O)(=O)c2cn(CC(=O)N3CCC(C)CC3)c3ccccc23)c1 | 27.2 µM |
| Nc1ncnc(SCc2ccc(Cl)cc2)n1 | 27.1 µM |
| Cc1ccc(Nc2nc(O)c(CC(=O)Nc3ccccc3C)s2)cc1C | 18 µM |
| CC(=O)c1ccc(NC(=O)/C(=C/c2ccco2)n2nnnc2-c2ccccc2)cc1 | > 50 µM (inactive) |
| COC(=O)c1ccccc1NC(=O)CSc1nnc(CNc2ccc(F)cc2)n1CC1CCCO1 (centres undefined) | > 50 µM (inactive) |
| COc1ccc(C(=O)Nc2ccc3c(c2)Sc2ncccc2C(=O)N3C)cn1 | > 50 µM (inactive) |
| COCC(C)Nc1ncc(-c2cnccn2)c(-c2ccc(C)s2)n1 (centres undefined) | > 50 µM (inactive) |
| CC(C)N1CC[C@@H]2[C@H](C1)CN2C(=O)Nc1cccc(F)c1 | > 50 µM (inactive) |
| CCCC1Cc2c(sc3nc(SCC)nc(N)c23)CO1 (centres undefined) | 7.76 µM |
| Cc1cc(Cl)ccc1NC(=O)c1cc(-c2cccnc2)n[nH]1 | > 50 µM (inactive) |
| CC(=O)c1oc2nc3c(c(-c4ccc(Cl)cc4)c2c1N)CCc1ccccc1-3 | > 50 µM (inactive) |
| Cc1c(C(=O)NCc2cccc(Br)c2)oc2c1-c1[nH]ncc1CC2 | 29.1 µM |
| FC(F)(F)c1cccc(Nc2nnc(-c3cccnc3)s2)c1 | 5.64 µM |
| COc1ccc(C(=O)CCN2CCOCC2)cc1[N+](=O)[O-] | > 50 µM (inactive) |
